Source: PubChem BioAssay (NCI)
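These data come from cells grown in 96-well plates and exposed to compound for 48 hours at five concentrations. Definition used: TGI = concentration required for complete inhibition of growth.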

Legend:
Test in all cases: NCI-60 cell line screen, 48 h
786-0 renal = tested on: 786-0 renal
A549 NSCLC = tested on: A549 NSCLC
ACHN renal = tested on: ACHN renal
BT-549 breast = tested on: BT-549 breast
CAKI-1 renal = tested on: CAKI-1 renal
CCRF-CEM leukemia = tested on: CCRF-CEM leukemia
COLO 205 colon = tested on: COLO 205 colon
DU-145 prostate = tested on: DU-145 prostate
EKVX NSCLC = tested on: EKVX NSCLC
HCC-2998 colon = tested on: HCC-2998 colon
HCT-116 colon = tested on: HCT-116 colon
HCT-15 colon = tested on: HCT-15 colon
HOP-62 NSCLC = tested on: HOP-62 NSCLC
HOP-92 NSCLC = tested on: HOP-92 NSCLC
HS 578T breast = tested on: HS 578T breast
HT29 colon = tested on: HT29 colon
IGROV1 ovarian = tested on: IGROV1 ovarian
K-562 leukemia = tested on: K-562 leukemia
KM12 colon = tested on: KM12 colon
LOX IMVI melanoma = tested on: LOX IMVI melanoma
M14 melanoma = tested on: M14 melanoma
MALME-3M melanoma = tested on: MALME-3M melanoma
MCF7 breast = tested on: MCF7 breast
MDA-MB-231 breast = tested on: MDA-MB-231 breast
MDA-MB-435 = tested on: MDA-MB-435
MOLT-4 leukemia = tested on: MOLT-4 leukemia
NCI-H226 lung = tested on: NCI-H226 lung
NCI-H23 lung = tested on: NCI-H23 lung
NCI-H460 lung = tested on: NCI-H460 lung
NCI-H522 lung = tested on: NCI-H522 lung
NCI/ADR-RES ovarian = tested on: NCI/ADR-RES ovarian
OVCAR-3 ovarian = tested on: OVCAR-3 ovarian
OVCAR-4 ovarian = tested on: OVCAR-4 ovarian
OVCAR-5 ovarian = tested on: OVCAR-5 ovarian
OVCAR-8 ovarian = tested on: OVCAR-8 ovarian
PC-3 prostate = tested on: PC-3 prostate
RPMI-8226 leukemia = tested on: RPMI-8226 leukemia
RXF 393 renal = tested on: RXF 393 renal
SF-268 CNS = tested on: SF-268 CNS
SF-295 CNS = tested on: SF-295 CNS
SF-539 CNS = tested on: SF-539 CNS
SK-MEL-2 melanoma = tested on: SK-MEL-2 melanoma
SK-MEL-28 melanoma = tested on: SK-MEL-28 melanoma
SK-MEL-5 melanoma = tested on: SK-MEL-5 melanoma
SK-OV-3 ovarian = tested on: SK-OV-3 ovarian
SN12C renal = tested on: SN12C renal
SNB-19 CNS = tested on: SNB-19 CNS
SNB-75 CNS = tested on: SNB-75 CNS
T-47D breast = tested on: T-47D breast
TK-10 renal = tested on: TK-10 renal
U251 CNS = tested on: U251 CNS
UACC-257 melanoma = tested on: UACC-257 melanoma
UACC-62 melanoma = tested on: UACC-62 melanoma
UO-31 renal = tested on: UO-31 renal
A498 renal = tested on: A498 renal
HL-60(TB) leukemia = tested on: HL-60(TB) leukemia

SMILES: C=CCN(C(=O)CNC(=O)C(F)(F)F)c1cc(OCc2ccccc2)c2c(c1)c(C)cn2S(=O)(=O)c1ccccc1
- TGI (786-0 renal): > 100 µM
- TGI (A549 NSCLC): > 100 µM
- TGI (ACHN renal): > 100 µM
- TGI (BT-549 breast): > 100 µM
- TGI (CAKI-1 renal): > 100 µM
- TGI (CCRF-CEM leukemia): > 100 µM
- TGI (COLO 205 colon): > 100 µM
- TGI (DU-145 prostate): > 100 µM
- TGI (EKVX NSCLC): > 100 µM
- TGI (HCC-2998 colon): > 100 µM
- TGI (HCT-116 colon): > 100 µM
- TGI (HCT-15 colon): > 100 µM
- TGI (HOP-62 NSCLC): > 100 µM
- TGI (HOP-92 NSCLC): > 100 µM
- TGI (HS 578T breast): > 100 µM
- TGI (HT29 colon): > 100 µM
- TGI (IGROV1 ovarian): > 100 µM
- TGI (K-562 leukemia): > 100 µM
- TGI (KM12 colon): > 100 µM
- TGI (LOX IMVI melanoma): > 100 µM
- TGI (M14 melanoma): > 100 µM
- TGI (MALME-3M melanoma): > 100 µM
- TGI (MCF7 breast): > 100 µM
- TGI (MDA-MB-231 breast): > 100 µM
- TGI (MDA-MB-435): > 100 µM
- TGI (MOLT-4 leukemia): > 100 µM
- TGI (NCI-H226 lung): > 100 µM
- TGI (NCI-H23 lung): > 100 µM
- TGI (NCI-H460 lung): > 100 µM
- TGI (NCI-H522 lung): > 100 µM
- TGI (NCI/ADR-RES ovarian): > 100 µM
- TGI (OVCAR-3 ovarian): > 100 µM
- TGI (OVCAR-4 ovarian): > 100 µM
- TGI (OVCAR-5 ovarian): > 100 µM
- TGI (OVCAR-8 ovarian): > 100 µM
- TGI (PC-3 prostate): > 100 µM
- TGI (RPMI-8226 leukemia): > 100 µM
- TGI (RXF 393 renal): > 100 µM
- TGI (SF-268 CNS): > 100 µM
- TGI (SF-295 CNS): > 100 µM
- TGI (SF-539 CNS): > 100 µM
- TGI (SK-MEL-2 melanoma): > 100 µM
- TGI (SK-MEL-28 melanoma): > 100 µM
- TGI (SK-MEL-5 melanoma): > 100 µM
- TGI (SK-OV-3 ovarian): > 100 µM
- TGI (SN12C renal): > 100 µM
- TGI (SNB-19 CNS): > 100 µM
- TGI (SNB-75 CNS): > 76.2 µM
- TGI (T-47D breast): > 100 µM
- TGI (TK-10 renal): > 100 µM
- TGI (U251 CNS): > 100 µM
- TGI (UACC-257 melanoma): > 100 µM
- TGI (UACC-62 melanoma): > 100 µM
- TGI (UO-31 renal): 15.6 µM

SMILES: CC(=O)c1c(O)ccc2c1c1c(n2C)C(=O)c2ccccc2C1=O
- TGI (786-0 renal): > 100 µM
- TGI (A498 renal): > 100 µM
- TGI (A549 NSCLC): > 100 µM
- TGI (BT-549 breast): > 100 µM
- TGI (CAKI-1 renal): > 100 µM
- TGI (CCRF-CEM leukemia): > 44.7 µM
- TGI (COLO 205 colon): > 100 µM
- TGI (DU-145 prostate): > 100 µM
- TGI (EKVX NSCLC): > 48.5 µM
- TGI (HCC-2998 colon): 1.36 µM
- TGI (HCT-116 colon): > 100 µM
- TGI (HCT-15 colon): > 100 µM
- TGI (HL-60(TB) leukemia): > 100 µM
- TGI (HOP-62 NSCLC): > 100 µM
- TGI (HS 578T breast): > 100 µM
- TGI (HT29 colon): > 100 µM
- TGI (K-562 leukemia): > 100 µM
- TGI (LOX IMVI melanoma): > 100 µM
- TGI (MCF7 breast): > 21 µM
- TGI (MDA-MB-231 breast): > 100 µM
- TGI (MOLT-4 leukemia): > 100 µM
- TGI (NCI-H460 lung): > 100 µM
- TGI (OVCAR-3 ovarian): 6.47 µM
- TGI (OVCAR-5 ovarian): > 100 µM
- TGI (OVCAR-8 ovarian): > 100 µM
- TGI (RXF 393 renal): > 100 µM
- TGI (SF-268 CNS): 7.97 µM
- TGI (SF-295 CNS): > 100 µM
- TGI (SF-539 CNS): > 100 µM
- TGI (SK-MEL-2 melanoma): > 100 µM
- TGI (SK-MEL-5 melanoma): > 100 µM
- TGI (SK-OV-3 ovarian): > 100 µM
- TGI (SNB-19 CNS): > 100 µM
- TGI (SNB-75 CNS): 5.97 µM
- TGI (T-47D breast): 4.46 µM
- TGI (TK-10 renal): > 28.1 µM
- TGI (U251 CNS): > 100 µM
- TGI (UACC-257 melanoma): > 100 µM
